No end group written: not given here.
Target: T1, His-tagged intracellular region of Fas receptor (Homo sapiens, UniProt P25445)
T1 construct: His-tagged intracellular region of Fas receptor [10 μg/ml]; purchased Sigma
T1 sequence (P25445 191-335 limits assumed): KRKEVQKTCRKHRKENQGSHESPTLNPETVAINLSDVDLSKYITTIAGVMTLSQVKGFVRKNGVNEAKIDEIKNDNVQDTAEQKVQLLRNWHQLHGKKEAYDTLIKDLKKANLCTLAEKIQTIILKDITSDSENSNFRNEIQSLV
Test: SPOT peptide array, enzyme-linked blot with His-tagged Fas
Assay type: binding
Settings: Fas 10 μg/ml; anti-His/anti-mouse-HRP
Method: FIG. 1: Determination of the DAXX epitope by SPOT synthesis. (A) The amino acid sequence of DAXX was dissected in overlapping peptide arrays (pepscan; 15 mer peptides with a shift of 3 amino acids) and analyzed in enzyme-linked blot. […] Incubation conditions: His-tagged intracellular region of Fas receptor [10 μg/ml]; antibodies: anti-His-(mouse) (Sigma H1029; 1:6,000)/anti-mouse-HRP (Calbiochem 401207; 1:2,000), exposure time: 1 minute. (B) Alignment of the human DAXX sequence comprising the 16-mer KKSRKEKKQTGSGPLG (=DAXXp of SEQ ID NO: 5) with the DAXX sequences of other species (mouse, rat, dog (CANFA) and green monkey (CHLAE)).
FIG. 2: Determination of the optimal length of the DAXX epitope (=DAXXp) by SPOT synthesis. (A) The DAXXp-211 and DAXXp-209 peptides (of SEQ ID NO: 2 and SEQ ID NO: 3, respectively) were successively shortened by one amino acid residue at the N-terminus, at the C-terminus and both at the N- and the C-termini, and analyzed using enzyme-linked blot. […] Incubation conditions: His-tagged intracellular region of Fas receptor [10 μg/ml]; antibodies: anti-His-(mouse) (Sigma H1029; 1:6,000)/anti-mouse-HRP (Calbiochem 401207; 1:2,000), exposure time: 1 minute. (B) Alignment of both peptide sequences DAXXp-211 and DAXXp-209; corresponding to the brightest spots, to determine the optimal DAXX peptide sequence.
FIG. 8: Determination of FADDp15 and its anti-apoptotic effect in cardiomyocytes. (A) The protein sequences of FADD were dissected in overlapping peptide arrays (pepscan; 15 mer peptides with a shift of 3 amino acids) and analyzed using enzyme-linked blot. […] (B) The peptide sequence of FADDp-11 (=FADDp15=SEQ ID NO: 9) was successively shortened by one amino acid residue at the C-terminus, the N-terminus, or at both the C-terminus and the N-terminus, and analyzed using enzyme-linked blot. […] The shortest FADD epitope (a 9-mer with sequence KRKLERVQS (=FADDp=SEQ ID NO: 12)) corresponded to spot No. 24. Incubation conditions: His-tagged intracellular region of Fas receptor [10 μg/ml]; antibodies: anti-His-(mouse) (Sigma H1029; 1:6,000)/anti-mouse-HRP (Calbiochem 401207; 1:2,000), exposure time: 1 minute.
The peptides were synthesized on N-modified CAPE-membranes (Bhargava et al, Mol. Recognit, 2002, 15: 145) and prepared by a MultiPep SPOT-robot (INTAVIS Bioanalytical Instruments AG, Cologne, Germany). Array design was performed with the aid of the in-house software LISA 1.71. The synthesis started with spot definition using a standard protocol [Frank, Tetrahedron, 1992, 48: 9217), followed by the coupling of a solution of Fmoc-cysteine-(Trt)-Opfp (0.3M) in N-methylpyrolidone (NMP) and Fmoc-alanine-Opfp (double coupling, 15 min reaction each). After Fmoc cleavage with piperidine in DMF (20%), 4-hydroxymethylphenoxyacetic acid (HMPA) dissolved in dimethylformamide (DMF, 0.6M solution) and activated with EEDQ (1.1 equiv) was added, and samples were directly spotted on the membrane (4× coupling, 15 min reaction each). The membrane was acetylated with acetic anhydride in DMF (2%), washed with DMF (5×3 min), ethanol (2×3 min), and diethyl ether (2×3 min), and finally air dried. Solutions of Fmoc-amino acid-OH (0.4M) activated with 1,1′-carbonyldiimidazole (CDI, 3 equiv) in DMF were spotted on the membrane (4× coupling, 15 min reaction time each). Proline, tyrosine, and glutamine were activated with 1,1′-carbonyldi(1,2,4-triazole) (CDT). The Fmoc group was removed from the spots, and the peptide sequences were completed using the standard SPOT synthesis protocol (Frank, Tetrahedron, 1992, 48: 9217) followed by a N-terminal tag with β-alanine.
The primary sequence of the DAXX protein (SEQ ID NO: 1) was dissected in overlapping 15 mer peptides (3 amino acids shift) and all the peptides (243 peptides) were synthesized on cellulose membrane by SPOT synthesis as described above. The peptide library was incubated with the His-tagged intra-cellular region of the Fas receptor (Sigma). […]

For “KKSRKEKKQTGSGPLG-NH2 [DAXXp, KKSRKEKKQTGSGPLG-NH2]”, the “interaction with the Fas receptor / signal intensity of the spot” value was “interact with the Fas receptor”.

From patent publication US9814758B2, “Inhibitors of apoptosis and uses thereof” (CENTRE NATIONAL DE LA RECHERCHE SCIENTIFIQUE-CNRS, priority 2010, dated 2017)
